{
  "source": "patent US20020114868A1",
  "about": "“Highly soluble and stable nutritional compositions containing calcium and magnesium” (priority 1999, published 2002)",
  "settings": "3.4 g calcium equivalent in 8 ounces deionized water at 68° F",
  "note": "Read-outs that look alike come from different tables or passages of the source. Marks after values point to notes of the source that are not given here.",
  "data": [
    {"smiles": "CC(O)C(=O)[O-].O=C([O-])[C@H](O)[C@@H](O)[C@H](O)[C@H](O)CO.[Ca+2]", "note": "[Gluconal ®, Calcium Gluconate Lactate]", "values": [
      {"measurement": "Dissolution Rates as % of Maximum Solubility", "setting": "elapsed time 00:00.0 mm:ss.s", "result": 0, "unit": "%"},
      {"measurement": "Dissolution Rates as % of Maximum Solubility", "setting": "elapsed time 00:05.4 mm:ss.s", "result": 10, "unit": "%"},
      {"measurement": "Dissolution Rates as % of Maximum Solubility", "setting": "elapsed time 00:10.7 mm:ss.s", "result": 20, "unit": "%"},
      {"measurement": "Dissolution Rates as % of Maximum Solubility", "setting": "elapsed time 00:16.1 mm:ss.s", "result": 30, "unit": "%"},
      {"measurement": "Dissolution Rates as % of Maximum Solubility", "setting": "elapsed time 00:21.5 mm:ss.s", "result": 50, "unit": "%"},
      {"measurement": "Dissolution Rates as % of Maximum Solubility", "setting": "elapsed time 00:26.9 mm:ss.s", "result": 55, "unit": "%"},
      {"measurement": "Dissolution Rates as % of Maximum Solubility", "setting": "elapsed time 00:32.2 mm:ss.s", "result": 45, "unit": "%"},
      {"measurement": "Dissolution Rates as % of Maximum Solubility", "setting": "elapsed time 00:37.6 mm:ss.s", "result": 58, "unit": "%"},
      {"measurement": "Dissolution Rates as % of Maximum Solubility", "setting": "elapsed time 00:43.0 mm:ss.s", "result": 63, "unit": "%"},
      {"measurement": "Dissolution Rates as % of Maximum Solubility", "setting": "elapsed time 00:48.4 mm:ss.s", "result": 66, "unit": "%"},
      {"measurement": "Dissolution Rates as % of Maximum Solubility", "setting": "elapsed time 00:53.7 mm:ss.s", "result": 71, "unit": "%"},
      {"measurement": "Dissolution Rates as % of Maximum Solubility", "setting": "elapsed time 00:59.1 mm:ss.s", "result": 71, "unit": "%"},
      {"measurement": "Dissolution Rates as % of Maximum Solubility", "setting": "elapsed time 01:04.5 mm:ss.s", "result": 77, "unit": "%"},
      {"measurement": "Dissolution Rates as % of Maximum Solubility", "setting": "elapsed time 01:09.9 mm:ss.s", "result": 77, "unit": "%"},
      {"measurement": "Dissolution Rates as % of Maximum Solubility", "setting": "elapsed time 01:15.3 mm:ss.s", "result": 80, "unit": "%"},
      {"measurement": "Dissolution Rates as % of Maximum Solubility", "setting": "elapsed time 01:20.6 mm:ss.s", "result": 83, "unit": "%"},
      {"measurement": "Dissolution Rates as % of Maximum Solubility", "setting": "elapsed time 01:36.7 mm:ss.s", "result": 85, "unit": "%"},
      {"measurement": "Dissolution Rates as % of Maximum Solubility", "setting": "elapsed time 01:47.5 mm:ss.s", "result": 85, "unit": "%"},
      {"measurement": "Dissolution Rates as % of Maximum Solubility", "setting": "elapsed time 01:58.2 mm:ss.s", "result": 86, "unit": "%"},
      {"measurement": "Dissolution Rates as % of Maximum Solubility", "setting": "elapsed time 02:09.0 mm:ss.s", "result": 88, "unit": "%"},
      {"measurement": "Dissolution Rates as % of Maximum Solubility", "setting": "elapsed time 03:00.0 mm:ss.s", "result": 98, "unit": "%"},
      {"measurement": "Dissolution Rates as % of Maximum Solubility", "setting": "elapsed time 03:30.5 mm:ss.s", "result": 94, "unit": "%"},
      {"measurement": "Dissolution Rates as % of Maximum Solubility", "setting": "elapsed time 04:00.0 mm:ss.s", "result": 99, "unit": "%"},
      {"measurement": "Dissolution Rates as % of Maximum Solubility", "setting": "elapsed time 05:00.0 mm:ss.s", "result": 99, "unit": "%"},
      {"measurement": "Dissolution Rates as % of Maximum Solubility", "setting": "elapsed time 06:00.0 mm:ss.s", "result": 99, "unit": "%"},
      {"measurement": "Dissolution Rates as % of Maximum Solubility", "setting": "elapsed time 07:00.0 mm:ss.s", "result": 99, "unit": "%***"},
      {"measurement": "Dissolution Rates as % of Maximum Solubility", "setting": "elapsed time 101:26.0 mm:ss.s", "result": 86, "unit": "%"}
    ]}
  ]
}
